Laboratory results taken from patent US9884825B2, “Curcumin analogs and methods of making and using thereof” (Georgia State University Research Foundation, Inc., priority 2012, dated 2018).

SMILES | melting point [°C]
CCc1ccc(/C=C2\CN(S(=O)(=O)c3ccc(C)cc3)C/C(=C\c3ccc(CC)cc3)C2=O)cc1 [3b, 3,5-Bis(4-etbylbenzylidene)-1-tosylpiperidin-4-one] | 165
CCCc1ccc(/C=C2\CN(S(=O)(=O)c3ccc(C)cc3)C/C(=C\c3ccc(CCC)cc3)C2=O)cc1 [3c, 3,5-Bis(4-propylbenzylidene)-1-tosylpiperidin-4-one] | 157
Cc1ccc(/C=C2\CN(S(=O)(=O)c3ccc(C)cc3)C/C(=C\c3ccc(C)cc3)C2=O)cc1 [3d, 3,5-Bis(4-methylbenzylidene)-1-tosylpiperidin-4-one] | 187
Cc1ccc(S(=O)(=O)N2C/C(=C\c3ccc(Cl)cc3)C(=O)/C(=C/c3ccc(Cl)cc3)C2)cc1 [3e, 3,5-Bis(4-chlorobenzylidene)-1-tosylpiperidin-4-one] | 209
COc1ccc(/C=C2\CN(S(=O)(=O)c3ccc(C)cc3)C/C(=C\c3ccc(OC)cc3)C2=O)cc1 [3f, 3,5-Bis(4-methoxybenzylidene)-1-tosylpiperidin-4-one] | 183
Cc1ccc(S(=O)(=O)N2C/C(=C\c3ccc(C(C)(C)C)cc3)C(=O)/C(=C/c3ccc(C(C)(C)C)cc3)C2)cc1 [3g, 3,5-Bis(4-tert-butylbenzylidene)-1-tosylpiperidin-4-one] | 220
CCCCc1ccc(/C=C2\CN(S(=O)(=O)c3ccc(C)cc3)C/C(=C\c3ccc(CCCC)cc3)C2=O)cc1 [3h, 3,5-Bis(4-butylbenzylidene)-1-tosylpiperidin-4-one] | 148
Cc1ccc(S(=O)(=O)N2C/C(=C\c3ccc(C(C)C)cc3)C(=O)/C(=C/c3ccc(C(C)C)cc3)C2)cc1 [3i, 3,5-Bis(4-isopropylbenzylidene)-1-tosylpiperidin-4-one] | 177
Cc1ccc(/C=C2\CN(S(=O)(=O)c3ccccc3)C/C(=C\c3ccc(C)cc3)C2=O)cc1 [4a, 3,5-Bis(4-methylbenzylidene)-1-(phenylsulfonyl)piperidin-4-one] | 211
CCc1ccc(/C=C2\CN(S(=O)(=O)c3ccccc3)C/C(=C\c3ccc(CC)cc3)C2=O)cc1 [4b, 3,5-Bis(4-ethylbenzylidene)-1-(phenylsulfonyl)piperidin-4-one] | 165
CC(C)c1ccc(/C=C2\CN(S(=O)(=O)c3ccccc3)C/C(=C\c3ccc(C(C)C)cc3)C2=O)cc1 [4c, 3,5-Bis(4-isopropylbenzylidene)-1-(phenylsulfonyl)piperidin-4-one] | 170
CCCc1ccc(/C=C2\CN(S(=O)(=O)c3ccccc3)C/C(=C\c3ccc(CCC)cc3)C2=O)cc1 [4d, 1-(Phenylsulfonyl)-3,5-bis(4-propylbenzylidene)piperidin-4-one] | 153
CC(C)(C)c1ccc(/C=C2\CN(S(=O)(=O)c3ccccc3)C/C(=C\c3ccc(C(C)(C)C)cc3)C2=O)cc1 [4f, 3,5-Bis(4-tert-butylbenzylidene)-1-(phenylsulfonyl)piperidin-4-one] | 194
CCCCc1ccc(/C=C2\CN(S(=O)(=O)c3ccccc3)C/C(=C\c3ccc(CCCC)cc3)C2=O)cc1 [4g, 3,5-Bis(4-butylbenzylidene)-1-(phenylsulfonyl)piperidin-4-one] | 134
COc1ccc(/C=C2\CN(S(=O)(=O)c3ccccc3)C/C(=C\c3ccc(OC)cc3)C2=O)cc1 [4h, 3,5-Bis(4-methoxybenzylidene)-1-(phenylsulfonyl)piperidin-4-one] | 217
O=C1/C(=C/c2ccc(F)cc2)CN(S(=O)(=O)c2ccccc2)C/C1=C\c1ccc(F)cc1 [4j, 3,5-Bis(4-fluorobenzylidene)-1-(phenylsulfonyl)piperidin-4-one] | 181
Cc1ccc(/C=C2\CN(Cc3ccccc3)C/C(=C\c3ccc(C)cc3)C2=O)cc1 [5a, 1-Benzyl-3,5-bis(4-methylbenzylidene)piperidin-4-one] | 170
CCc1ccc(/C=C2\CN(Cc3ccccc3)C/C(=C\c3ccc(CC)cc3)C2=O)cc1 [5c, 1-Benzyl-3,5-bis-(4-ethyl-benzylidene)-piperidin-4-one] | 119
CC(C)c1ccc(/C=C2\CN(Cc3ccccc3)C/C(=C\c3ccc(C(C)C)cc3)C2=O)cc1 [5e, 1-Benzyl-3,5-bis(4-isopropylbenzylidene)piperidin-4-one] | 157
CCCCc1ccc(/C=C2\CN(Cc3ccccc3)C/C(=C\c3ccc(CCCC)cc3)C2=O)cc1 [5f, 1-Benzyl-3,5-bis(4-butylbenzylidene)piperidin-4-one] | 104
CC(C)(C)c1ccc(/C=C2\CN(Cc3ccccc3)C/C(=C\c3ccc(C(C)(C)C)cc3)C2=O)cc1 [5g, 1-Benzyl-3,5-bis(4-tert-butylbenzylidene)piperidin-4-one] | 167
O=C1/C(=C/c2ccc(F)cc2)CN(Cc2ccccc2)C/C1=C\c1ccc(F)cc1 [5j, 1-Benzyl-3,5-bis(4-fluorobenzylidene)piperidin-4-one] | 159

Now from value to compound:

melting point [°C] | SMILES
178 | CCN1C/C(=C\c2ccc(Br)cc2)C(=O)/C(=C/c2ccc(Br)cc2)C1 [6a, 3,5-Bis-(4-bromo-benzylidene)-1-ethyl-piperidin-4-one]
114 | CCN1C/C(=C\c2ccc(F)cc2)C(=O)/C(=C/c2ccc(F)cc2)C1 [6c, 1-Ethyl-3,5-bis(4-fluorobenzylidene)piperidin-4-one]
178 | CCc1ccc(/C=C2\CN(CC)C/C(=C\c3ccc(CC)cc3)C2=O)cc1 [6e, 1-Ethyl-3,5-bis(4-ethylbenzylidene)piperidin-4-one]
111 | CCN1C/C(=C\c2ccc(C(C)(C)C)cc2)C(=O)/C(=C/c2ccc(C(C)(C)C)cc2)C1 [6i, 3,5-Bis(4-tert-butylbenzylidene)-1-ethylpiperidin-4-one]
106 | C#CCN1CC(=Cc2ccc(C(C)C)cc2)C(=O)C(=Cc2ccc(C(C)C)cc2)C1 [10c, 3,5-Bis(4-isopropylbenzylidene)-1-(prop-2-ynyl)piperidin-4-one]
182 | C#CCN1CC(=Cc2ccc(C(C)(C)C)cc2)C(=O)C(=Cc2ccc(C(C)(C)C)cc2)C1 [10d, 3,5-Bis(4-tert-butylbenzylidene)-1-(prop-2-ynyl)piperidin-4-one]
96 | C#CCN1CC(=Cc2ccc(CCC)cc2)C(=O)C(=Cc2ccc(CCC)cc2)C1 [10e, 1-(Prop-2-ynyl)-3,5-bis(4-propylbenzylidene)piperidin-4-one]
165 | CCCn1cc(CN2CC(=Cc3ccc(C)cc3)C(=O)C(=Cc3ccc(C)cc3)C2)nn1 [11a, 3,5-Bis(4-methylbenzylidene)-1-((1-propyl-1H-1,2,3-triazol-4-yl)methyl)piperidin-4-one]
169 | CCCCCn1cc(CN2CC(=Cc3ccc(C)cc3)C(=O)C(=Cc3ccc(C)cc3)C2)nn1 [11c, 3,5-Bis(4-methylbenzylidene)-1-((1-pentyl-1H-1,2,3-triazol-4-yl)methyl)piperidin-4-one]
149 | CCCn1cc(CN2CC(=Cc3ccc(CC)cc3)C(=O)C(=Cc3ccc(CC)cc3)C2)nn1 [12a, 3,5-Bis(4-ethylbenzylidene)-1-((1-propyl-1H-1,2,3-triazol-4-yl)methyl)piperidin-4-one]
150 | CCCCn1cc(CN2CC(=Cc3ccc(CC)cc3)C(=O)C(=Cc3ccc(CC)cc3)C2)nn1 [12b, 1-((1-Butyl-1H-1,2,3-triazol-4-yl)methyl)-3,5-bis(4-ethylbenzylidene)piperidin-4-one]
156 | CCCCCn1cc(CN2CC(=Cc3ccc(CC)cc3)C(=O)C(=Cc3ccc(CC)cc3)C2)nn1 [12c, 3,5-Bis(4-ethylbenzylidene)-1-((1-pentyl-1H-1,2,3-triazol-4-yl)methyl)piperidin-4-one]
144 | CCCn1cc(CN2CC(=Cc3ccc(C(C)C)cc3)C(=O)C(=Cc3ccc(C(C)C)cc3)C2)nn1 [13a, 3,5-Bis(4-isopropylbenzylidene)-1-((1-propyl-1H-1,2,3-triazol-4-yl)methyl)piperidin-4-one]
145 | CCCCn1cc(CN2CC(=Cc3ccc(C(C)C)cc3)C(=O)C(=Cc3ccc(C(C)C)cc3)C2)nn1 [13b, 1-((1-Butyl-1H-1,2,3-triazol-4-yl)methyl)-3,5-bis(4-isopropylbenzylidene)piperidin-4-one]
143 | CCCCCn1cc(CN2CC(=Cc3ccc(C(C)C)cc3)C(=O)C(=Cc3ccc(C(C)C)cc3)C2)nn1 [13c, 3,5-Bis(4-isopropylbenzylidene)-1-((1-pentyl-1H-1,2,3-triazol-4-yl)methyl)piperidin-4-one]
182 | CCCn1cc(CN2CC(=Cc3ccc(C(C)(C)C)cc3)C(=O)C(=Cc3ccc(C(C)(C)C)cc3)C2)nn1 [14a, 3,5-Bis(4-tert-butylbenzylidene)-1-((1-propyl-1H-1,2,3-triazol-4-yl)methyl)piperidin-4-one]
145 | CCCCn1cc(CN2CC(=Cc3ccc(C(C)(C)C)cc3)C(=O)C(=Cc3ccc(C(C)(C)C)cc3)C2)nn1 [14b, 1-[(1-Butyl-1H-1,2,3-triazol-4-yl)methyl]-3,5-bis(4-tert-butylbenzylidene)piperidin-4-one]
146 | CCCCCn1cc(CN2CC(=Cc3ccc(C(C)(C)C)cc3)C(=O)C(=Cc3ccc(C(C)(C)C)cc3)C2)nn1 [14c, 3,5-Bis(4-tert-butylbenzylidene)-1-[(1-pentyl-1H-1,2,3-triazol-4-yl)methyl]piperidin-4-one]
133 | CCCc1ccc(C=C2CN(Cc3cn(CCC)nn3)CC(=Cc3ccc(CCC)cc3)C2=O)cc1 [15a, 1-[(1-Propyl-1H-1,2,3-triazol-4-yl)methyl]-3,5-bis(4-propylbenzylidene)piperidin-4-one]
134 | CCCCCn1cc(CN2CC(=Cc3ccc(CCC)cc3)C(=O)C(=Cc3ccc(CCC)cc3)C2)nn1 [15c, 1-[(1-Pentyl-1H-1,2,3-triazol-4-yl)methyl]-3,5-bis(4-propylbenzylidene)piperidin-4-one]
127 | CCCCc1ccc(C=C2CN(Cc3cn(CCC)nn3)CC(=Cc3ccc(CCCC)cc3)C2=O)cc1 [16a, 3,5-Bis(4-butylbenzylidene)-1-[(1-propyl-1H-1,2,3-triazol-4-yl)methyl]piperidin-4-one]
